# “And” between values parts separate entries of the source, which are not always exact repeats. Equal entries are not always repeated.
# Key:
# hrpL promoter = assay: GFP reporter plasmid phrpL, flow cytometry of hrpL promoter activity; type: cell-based, Dickeya dadantii 3937; details: for GFP Mean Fluorescence Intensity, hrpL promoter: MM + 0.1 mM compound; for mean fluorescence intensity of GFP, hrpL promoter: 3937 (phrpL), MM + 100 μM
# Description: (§1) FACS analysis of promoter activity of dspE, hrpA, hrpL, hrpN, and hrpS was carried out as described (Peng et al., 2006). Briefly, the wild-type Ech3937 and the mutant strains carrying the promoter reporter plasmid were grown on LB broth at 28° C. overnight and transferred to appropriate media. For FACS analysis, samples were collected by centrifugation, washed with 1× phosphate buffer saline (PBS) at 13,000 rpm for 1 min, and re-suspended in 1×PBS to ca 10^6 CFU/ml prior to being run in a FACS Calibur flow cytometer (BD Biosciences, CA). Three replicates were performed for each treatment.
# hrpA promoter (T3SS) [1] = assay: hrpA promoter-probe phrpA in Erwinia amylovora 273, flow cytometry; type: cell-based; details: Ea273 (phrpA), HIM + 100 μM compound
# How it was run: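 Erwinia amylovora 273 carrying an hrpA promoter–GFP fusion (pPROBE-NT) was grown in hrp-inducing medium with 100 μM compound or DMSO. Promoter activity read as GFP intensity by flow cytometry at 6 h and 9 h.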
# hrpA promoter (T3SS) [2] = assay: GFP reporter plasmid phrpA, flow cytometry (FACS) of hrpA promoter activity; type: cell-based, Dickeya dadantii 3937; details: for change of average GFP fluorescence intensity of Ech3937 (phrpA) vs MM alone, in words: 0.1 mM; for GFP Mean Fluorescence Intensity, hrpA promoter: MM + 0.1 mM compound
# How it was run: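 D. dadantii (Ech) 3937 carrying the phrpA promoter–GFP transcriptional fusion was grown in T3SS minimal medium with 100 μM compound, starting from an inoculum of OD600 1.0. GFP was read by flow cytometry at 12 and 24 h. Values are mean fluorescence intensity of three replicates ± SD, with compound-free MM as control.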
# hrpN promoter (T3SS) = assay: GFP reporter plasmid phrpN, flow cytometry of hrpN promoter activity; type: cell-based, Dickeya dadantii 3937; details: for hrpN expression in Ech3937 and hrpX, hrpY, hrpS mutants, in words: 0.1 mM, 12 h (FIG. 5); for GFP Mean Fluorescence Intensity, hrpN promoter: MM + 0.1 mM compound; for mean fluorescence intensity of GFP, hrpN promoter: 3937 (phrpN), MM + 100 μM
# Description: as §1
# (§2) Phenolic compounds constitute an important class of organic substances produced by plants. The phenolic compound SA is a signaling molecule that plays a role in host defenses. OCA and TCA are the biosynthetic precursors of SA and are also reported to induce the expression of defense-related genes in plants. OCA, TCA, and SA were examined to elucidate their effects on the expression of T3SS genes. The expression of the T3SS gene hrpN was examined in MM and MM supplemented with OCA, TCA, and SA, at concentrations of 0.05, 0.1, and 0.2 mM, respectively. FIGS. 2A and 2B show the promoter activities of hrpN in Dickeya dadantii 3937 (Ech3937) grown in MM and MM supplemented with 0.05, 0.1, and 0.2 mM OCA, TCA, and SA at 12 h (FIG. 2A) and 24 h (FIG. 2B) post-inoculation. GFP intensity was determined on gated populations of bacterial cells by flow cytometry and analyzed with the Cell Quest software (BD Biosciences, San Jose, Calif.). The growth of Ech3937 in MM supplemented with different concentrations of OCA, TCA and SA was recorded. Compared with MM alone, the average GFP fluorescence intensity of bacterial cells of Ech3937 (phrpN) was increased approximately 4-fold when 0.05 mM of OCA and TCA were added to the medium (FIGS. 2A, 2B).
# [3] = system: Dickeya dadantii 3937 (Ech3937); assay: Bacterial growth in MM supplemented with compound; type: cell-based; details: compound added into the MM
# Source text: as §2
# The expression of the T3SS gene hrpA was further examined in MM and MM supplemented with PCA at concentrations of 0.001, 0.005, 0.01, 0.05 and 0.1 mM respectively. FIGS. 16A and 16B show the promoter activities of hrpA in Dickeya dadantii 3937 (Ech3937) grown in minimum medium (MM) and MM supplemented with different amount of p-coumaric acid (PCA) at 12 h (FIG. 16A) and 24 h (FIG. 16B) post-inoculation. GFP intensity was determined on gated populations of bacterial cells by flow cytometry and analyzed with the Cell Quest software (BD Biosciences, San Jose, Calif.). The growth of Ech3937 in MM supplemented with different concentrations of PCA was recorded. Compared with MM alone, the average GFP fluorescence intensity of bacterial cells of Ech3937 (phrpA) was reduced more than 4-fold when 0.05 and 0.1 mM of PCA were added to the medium (FIGS. 16A, 16B).
# [4] = system: pPROBE-AT vector without promoter insert; assay: pPROBE-AT vector control, flow cytometry; type: cell-based, Dickeya dadantii 3937; details: for GFP Mean Fluorescence Intensity, vector control: Ech3937 (pPROBE-AT), MM + 0.1 mM compound; for mean fluorescence intensity of GFP, vector control: 3937 (pPROBE-AT), MM + 100 μM
# Description: as §1
# [5] = hrpL mutant WPP96 (phrpA), 12 h
# [6] = hrpL mutant WPP96 (phrpN), 12 h
structure (smiles),measurement,setting,value
"O=C(O)/C=C/c1ccccc1O [Compound 006, Ortho-coumaric acid]","GFP Mean Fluorescence Intensity, hrpL promoter","hrpL promoter; Ech3937 (phrpL), 12 h",19 ± 0
same,"Avg MFI ± SD, hrpA expression",hrpA promoter (T3SS) [1]; 6 h,443 ± 16.9
same,"Avg MFI ± SD, hrpA expression",hrpA promoter (T3SS) [1]; 9 h,437.8 ± 21.1
same,"change of average GFP fluorescence intensity of Ech3937 (phrpA) vs MM alone, in words",hrpA promoter (T3SS) [2]; 12 h,doubled
same,"GFP Mean Fluorescence Intensity, hrpA promoter","hrpA promoter (T3SS) [2]; Ech3937 (phrpA), 12 h, listed as OCA",82 ± 1
same,"GFP Mean Fluorescence Intensity, hrpA promoter","hrpA promoter (T3SS) [2]; Ech-Rif (phrpA), 6 h",18 ± 0
same,"GFP Mean Fluorescence Intensity, hrpA promoter","hrpA promoter (T3SS) [2]; Ech-Rif (phrpA), 12 h",51 ± 2
same,"GFP Mean Fluorescence Intensity, hrpA promoter","hrpA promoter (T3SS) [2]; Ech-Rif (phrpA), 24 h",49 ± 1
same,"GFP Mean Fluorescence Intensity, hrpA promoter","hrpA promoter (T3SS) [2]; gacA mutant Ech137 (phrpA), 6 h",4.9 ± 0.1
same,"GFP Mean Fluorescence Intensity, hrpA promoter","hrpA promoter (T3SS) [2]; gacA mutant Ech137 (phrpA), 12 h",5.9 ± 0.1
same,"GFP Mean Fluorescence Intensity, hrpA promoter","hrpA promoter (T3SS) [2]; gacA mutant Ech137 (phrpA), 24 h",8.3 ± 0
same,"GFP Mean Fluorescence Intensity, hrpA promoter",hrpA promoter (T3SS) [2]; [5],6.5 ± 0.2
same,"hrpN expression in Ech3937 and hrpX, hrpY, hrpS mutants, in words",hrpN promoter (T3SS),"induced the expression of hrpN in Ech3937, but not in hrpX, hrpY, and hrpS mutants"
same,"GFP Mean Fluorescence Intensity, hrpN promoter","hrpN promoter (T3SS); Ech3937 (phrpN), 6 h",31 ± 3
same,"GFP Mean Fluorescence Intensity, hrpN promoter","hrpN promoter (T3SS); Ech3937 (phrpN), 12 h, listed as OCA",94 ± 3 and 91 ± 8
same,"GFP Mean Fluorescence Intensity, hrpN promoter","hrpN promoter (T3SS); Ech3937 (phrpN), 24 h",78 ± 8
same,"GFP Mean Fluorescence Intensity, hrpN promoter",hrpN promoter (T3SS); [6],3.3 ± 0.1
same,"GFP Mean Fluorescence Intensity, hrpN promoter","hrpN promoter (T3SS); iaaM mutant Ech138 (phrpN), 6 h",9.1 ± 1.6
same,"GFP Mean Fluorescence Intensity, hrpN promoter","hrpN promoter (T3SS); iaaM mutant Ech138 (phrpN), 12 h",33 ± 5
same,"GFP Mean Fluorescence Intensity, hrpN promoter","hrpN promoter (T3SS); iaaM mutant Ech138 (phrpN), 24 h",39 ± 5
same,"effect on bacterial growth of Ech3937 in MM, in words",[3],No reduction of bacterial growth
same,"GFP Mean Fluorescence Intensity, vector control",[4]; 6 h,2.0 ± 0
same,"GFP Mean Fluorescence Intensity, vector control",[4]; 12 h,2.0 ± 0
same,"GFP Mean Fluorescence Intensity, vector control",[4]; 24 h,1.9 ± 0
"O=C(O)/C=C/c1ccccc1 [Compound 001, trans-cinnamic acid]","GFP Mean Fluorescence Intensity, hrpL promoter","hrpL promoter; Ech3937 (phrpL), 12 h",19 ± 1
same,"GFP Mean Fluorescence Intensity, hrpL promoter","hrpL promoter; hrpL mutant WPP96 (phrpL), 12 h",331 ± 27
same,"Avg MFI ± SD, hrpA expression",hrpA promoter (T3SS) [1]; 6 h,471.2 ± 12.6
same,"Avg MFI ± SD, hrpA expression",hrpA promoter (T3SS) [1]; 9 h,432.6 ± 17.8
same,"change of average GFP fluorescence intensity of Ech3937 (phrpA) vs MM alone, in words",hrpA promoter (T3SS) [2]; 12 h,doubled
same,"GFP Mean Fluorescence Intensity, hrpA promoter","hrpA promoter (T3SS) [2]; Ech3937 (phrpA), 6 h",22.3 ± 2.1
same,"GFP Mean Fluorescence Intensity, hrpA promoter","hrpA promoter (T3SS) [2]; Ech3937 (phrpA), 24 h",203.7 ± 16.1
same,"GFP Mean Fluorescence Intensity, hrpA promoter",hrpA promoter (T3SS) [2]; [5],6.2 ± 0.6
same,increase of average GFP fluorescence intensity of Ech3937 (phrpN) compared with MM alone,"hrpN promoter (T3SS); 0.05 mM compound, 12 h and 24 h (FIGS. 2A, 2B)",approximately 4 fold
same,"hrpN expression in Ech3937 and hrpX, hrpY, hrpS mutants, in words",hrpN promoter (T3SS),"induced the expression of hrpN in Ech3937, but not in hrpX, hrpY, and hrpS mutants"
same,"GFP Mean Fluorescence Intensity, hrpN promoter","hrpN promoter (T3SS); Ech3937 (phrpN), 12 h",103 ± 1
same,GFP Intensity of Ech3937 (phrpN),"hrpN promoter (T3SS); MM + 0.2 μM compound, 12 h",65.1 ± 6.8
same,GFP Intensity of Ech3937 (phrpN),"hrpN promoter (T3SS); MM + 0.2 μM compound, 24 h",163 ± 25
same,GFP Intensity of Ech3937 (phrpN),"hrpN promoter (T3SS); MM + 0.5 μM compound, 12 h",73.4 ± 4.2
same,GFP Intensity of Ech3937 (phrpN),"hrpN promoter (T3SS); MM + 0.5 μM compound, 24 h",158 ± 20
same,GFP Intensity of Ech3937 (phrpN),"hrpN promoter (T3SS); MM + 5 μM compound, 12 h",134 ± 5.6
same,GFP Intensity of Ech3937 (phrpN),"hrpN promoter (T3SS); MM + 5 μM compound, 24 h",266 ± 14
same,GFP Intensity of Ech3937 (phrpN),"hrpN promoter (T3SS); MM + 10 μM compound, 12 h",147 ± 18
same,GFP Intensity of Ech3937 (phrpN),"hrpN promoter (T3SS); MM + 10 μM compound, 24 h",284 ± 12
same,"GFP Mean Fluorescence Intensity, hrpN promoter",hrpN promoter (T3SS); [6],3.3 ± 0
same,"effect on bacterial growth of Ech3937 in MM, in words",[3],No reduction of bacterial growth
same,"GFP Mean Fluorescence Intensity, vector control",[4]; 12 h,1.9 ± 0
"O=C(/C=C/c1ccc(O)cc1)NO [Compound 103, trans-4-Hydroxycinnamohydroxamic acid]","mean fluorescence intensity of GFP, hrpL promoter",hrpL promoter; 12 h,7.6 ± 0.2
same,"mean fluorescence intensity of GFP, hrpL promoter",hrpL promoter; 24 h,7.7 ± 0.2
same,"Avg MFI ± SD, hrpA expression",hrpA promoter (T3SS) [1]; 6 h,206.9 ± 3.9
same,"Avg MFI ± SD, hrpA expression",hrpA promoter (T3SS) [1]; 9 h,168.2 ± 24.9
same,reduction of hrpA expression,hrpA promoter (T3SS) [2]; 10 μM added to the medium,approximately 4 fold
same,"inhibitory activity on T3SS gene (hrpA) expression, in words","hrpA promoter (T3SS) [2]; D. dadantii 3937, reporter plasmid phrpA, 100 μM",showed inhibitory effect
same,minimal effective concentration,"hrpA promoter (T3SS) [2]; Dickeya dadantii, read-out: minimal inhibitory concentration on hrpA expression (concentration showing inhibitory effect)",10 µM
same,"Mean Fluorescence Intensity of GFP (hrpA, phrpA)","hrpA promoter (T3SS) [2]; Trial 1, MM supplemented with compound at 100 μM",9.3 ± 0.3
same,"mean fluorescence intensity of GFP, hrpN promoter",hrpN promoter (T3SS); 12 h,5.8 ± 0.7
same,"mean fluorescence intensity of GFP, hrpN promoter",hrpN promoter (T3SS); 24 h,5.4 ± 0.3
same,"mean fluorescence intensity of GFP, vector control",[4]; 12 h,3.0 ± 0.6
same,"mean fluorescence intensity of GFP, vector control",[4]; 24 h,4.3 ± 0.6
